In patent US11224601B1, “Compounds that inhibits MCL-1 protein” (priority 2017, dated 2022) one finds IC50 data, which are given here for 27 compounds.

The subject of this experiment is OPM-2 human multiple myeloma cell line. Put plainly: Cell Viability Assay (OPM-2 10 FBS), CellTiter-Glo. Type of experiment: cell-based. As for the experimental part: Cell Viability Assay (OPM-2 10 FBS)
The human multiple myeloma cell line, OPM-2, was cultured in complete growth medium containing RPMI 1640 and 10% fetal bovine serum (FBS). Cells were seeded into 384-well plates at 3000 cells/well density in complete growth medium containing 10% FBS, and incubated for 16 h with serially diluted test compounds in a 37° C. incubator with 5% CO2. Cell viability was tested using CellTiter-Glo® assay (Promega, Madison, Wis.) according to the manufacturer recommendations. Luminescence was determined using an EnVision® Multilabel plate reader 25 min after the addition of detection reagent. IC50 values were then calculated with Xlfit using a logistical 4-parameter fit model in GraphPad Prism (GraphPad Software, San Diego, Calif.) or in Genedata Screener® (Genedata, Basel, Switzerland).

[1] abbreviates: Homo sapiens, OPM-2, 16 h, read-out: OPM-2 10% FBS IC50 IP (μM), OPM-2 cells, 10% FBS, 16 h, CellTiter-Glo.
Where [2] appears, read: read-out: OPM-2 10% FBS IC50 IP, OPM-2 cells, 10% FBS, 16 h, CellTiter-Glo.

The structures appear in SMILES notation. Like-named read-outs stand apart in the source and are kept apart here.

Take `CO[C@@]1(CN2CCN3CCC(F)(F)CC3C2)/C=C/C[C@H](C)[C@@H](C)S(=O)(=O)NC(=O)c2ccc3c(c2)N(C[C@@H]2CC[C@H]21)C[C@@]1(CCCc2cc(Cl)ccc21)CO3` (mixture of isomers) [Example 273]: the IC50 under setting [1] is 0.501 µM.

On to `CO[C@]1(CN2CCN3CCC[C@@H]3C2)/C=C/C[C@H](C)[C@@H](C)S(=O)(=O)NC(=O)c2ccc3c(c2)N(C[C@@H]2CC[C@H]21)C[C@@]1(CCCc2cc(Cl)ccc21)CO3` [Example 83], for which the IC50 under setting [1] was determined as 0.245 µM.

In the case of `C[C@@H]1[C@@H](C)CCC[C@@](O)(CN2CCN3CCOC[C@@H]3C2)[C@@H]2CC[C@H]2CN2C[C@@]3(CCCc4cc(Cl)ccc43)COc3ccc(cc32)C(=O)NS1(=O)=O` [Example 7, (1S,3′R,6′R,7′S,11′S,12′R)-6-chloro-7′-((9aS)-hexahydropyrazino[2,1-c][1,4]oxazin-8(1H)-ylmethyl)-7′-hydroxy-11′,12′-dimethyl-3,4-dihydro-2H,15′H-spiro[naphthalene-1,22′-[20]oxa[13]thia[1,14]diazatetracyclo[14.7.2.0˜3,6˜.0˜19,24˜]pentacosa[16,18,24]trien]-15′-one 13′,13′-dioxide], the IC50 under setting [1] worked out at 0.025 µM.

As for `CO[C@@]1(CN2CCN3CCN(C(=O)CCS(=O)(=O)c4ccccc4)C[C@@H]3C2)/C=C/C[C@H](C)[C@@H](C)S(=O)(=O)NC(=O)c2ccc3c(c2)N(C[C@@H]2CC[C@H]21)C[C@@]1(CCCc2cc(Cl)ccc21)CO3` (single isomer, unassigned) [Example 294], under setting [2], the IC50 amounted to 0.687 µM.

With `CO[C@]1(CN2CCN3CCCC[C@@H]3C2)/C=C/C[C@H](C)[C@@H](C)S(=O)(=O)NC(=O)c2ccc3c(c2)N(C[C@@H]2CC[C@H]21)C[C@@]1(CCCc2cc(Cl)ccc21)CO3` [Example 10, (1S,3′R,6′R,7′R,8′E,11′S,12′R)-6-chloro-7′-methoxy-11′,12′-dimethyl-7′-((9aR)-octahydro-2H-pyrido[1,2-a]pyrazin-2-ylmethyl)-3,4-dihydro-2H,15′H-spiro[naphthalene-1,22′-[20]oxa[13]thia[1,14]diazatetracyclo [14.7.2.0˜3,6˜.0˜19,24˜]pentacosa[8,16,18,24]tetraen]-15′-one 13′,13′-dioxide], under setting [1], the IC50 worked out at 0.075 µM.

For `CO[C@@]1(CN2CCN([C@@H]3CCOC3)CC2)/C=C/C[C@H](C)[C@@H](C)S(=O)(=O)NC(=O)c2ccc3c(c2)N(C[C@@H]2CC[C@H]21)C[C@@]1(CCCc2cc(Cl)ccc21)CO3` (single isomer, unassigned) [Example 286], the IC50 under setting [1] was found to be 0.05 µM.

Consider `CO[C@]1(CN2CCN3CCN(S(C)(=O)=O)C[C@@H]3C2)/C=C/C[C@H](C)[C@@H](C)S(=O)(=O)NC(=O)c2ccc3c(c2)N(C[C@@H]2CC[C@H]21)C[C@@]1(CCCc2cc(Cl)ccc21)CO3` (single isomer, unassigned) [Example 238], for which the IC50 under setting [2] stood at 0.076 µM.

With `C=CC(=O)N1CCN2CCN(C[C@]3(OC)/C=C/C[C@H](C)[C@@H](C)S(=O)(=O)NC(=O)c4ccc5c(c4)N(C[C@@H]4CC[C@H]43)C[C@@]3(CCCc4cc(Cl)ccc43)CO5)C[C@H]2C1` (stereo in doubt) [Example 234], the IC50 under setting [1] was 0.071 µM.

On to `CO[C@]1(CN2CCN3CCN(S(C)(=O)=O)C[C@@H]3C2)/C=C/C[C@H](C)[C@@H](C)S(=O)(=O)NC(=O)c2ccc3c(c2)N(C[C@@H]2CC[C@H]21)C[C@@]1(CCCc2cc(Cl)ccc21)CO3` (stereo in doubt) [Example 227], for which the IC50 under setting [1] was found to be 0.131 µM.

On to `CO[C@]1(CN2CCN3CCS(=O)(=O)C[C@@H]3C2)/C=C/C[C@H](C)[C@@H](C)S(=O)(=O)NC(=O)c2ccc3c(c2)N(C[C@@H]2CC[C@H]21)C[C@@]1(CCCc2cc(Cl)ccc21)CO3` (single isomer, unassigned) [Example 221], for which the IC50 under setting [2] was 0.12 µM.

`CO[C@]1(CN2CC[C@@H]3CCCC[C@H]3C2)/C=C/C[C@H](C)[C@@H](C)S(=O)(=O)NC(=O)c2ccc3c(c2)N(C[C@@H]2CC[C@H]21)C[C@@]1(CCCc2cc(Cl)ccc21)CO3` (single isomer, unassigned) [Example 90]: the IC50 under setting [1] worked out at 8.98 µM.

Consider `CO[C@]1(CN2CCN(C(C)C)[C@H](C)C2)/C=C/C[C@H](C)[C@@H](C)S(=O)(=O)NC(=O)c2ccc3c(c2)N(C[C@@H]2CC[C@H]21)C[C@@]1(CCCc2cc(Cl)ccc21)CO3` [Example 8, (1S,3′R,6′R,7′R,8′E,11′S,12′R)-6-chloro-7′-methoxy-11′,12′-dimethyl-7′-(((3R)-3-methyl-4-(1-methylethyl)-1-piperazinyl)methyl)-3,4-dihydro-2H,15′H-spiro[naphthalene-1,22′-[20]oxa[13]thia[1,14]diazatetracyclo[14.7.2.0˜3,6˜.0˜19,24˜]pentacosa[8,16,18,24]tetraen]-15′-one 13′,13′-dioxide], for which the IC50 under setting [1] was 0.025 µM.

Take `CO[C@@]1(CN2CCN3CCN(C(=O)CCS(=O)(=O)c4ccccc4)C[C@@H]3C2)/C=C/C[C@H](C)[C@@H](C)S(=O)(=O)NC(=O)c2ccc3c(c2)N(C[C@@H]2CC[C@H]21)C[C@@]1(CCCc2cc(Cl)ccc21)CO3` (stereo in doubt) [Example 233]: the IC50 under setting [2] is 0.202 µM.

Turning to `CO[C@]1(CN2CC[C@H]3CCCC[C@@H]3C2)/C=C/C[C@H](C)[C@@H](C)S(=O)(=O)NC(=O)c2ccc3c(c2)N(C[C@@H]2CC[C@H]21)C[C@@]1(CCCc2cc(Cl)ccc21)CO3` (stereo in doubt) [Example 86], the IC50 under setting [1] turned out to be 7.95 µM.

Consider `CO[C@]1(CN2CCN3CCN(S(C)(=O)=O)C[C@@H]3C2)/C=C/C[C@H](C)[C@@H](C)S(=O)(=O)NC(=O)c2ccc3c(c2)N(C[C@@H]2CC[C@H]21)C[C@@]1(CCCc2cc(Cl)ccc21)CO3` (single isomer, unassigned) [Example 237], for which the IC50 under setting [1] turned out to be 0.064 µM.

For the compound `CO[C@@]1(CN2CCN3CCS(=O)(=O)C[C@@H]3C2)/C=C/C[C@H](C)[C@@H](C)S(=O)(=O)NC(=O)c2ccc3c(c2)N(C[C@@H]2CC[C@H]21)C[C@@]1(CCCc2cc(Cl)ccc21)CO3` (single isomer, unassigned) [Example 231], under setting [2], the IC50 was found to be 0.098 µM.

With `CO[C@]1(CN2CCN3CCC(F)(F)C[C@@H]3C2)/C=C/C[C@H](C)[C@@H](C)S(=O)(=O)NC(=O)c2ccc3c(c2)N(C[C@@H]2CC[C@H]21)C[C@@]1(CCCc2cc(Cl)ccc21)CO3` (stereo in doubt) [Example 292], the IC50 under setting [1] came to 0.399 µM.

With `CO[C@@]1(CN2CCN3CCC(F)(F)C[C@@H]3C2)/C=C/C[C@H](C)[C@@H](C)S(=O)(=O)NC(=O)c2ccc3c(c2)N(C[C@@H]2CC[C@H]21)C[C@@]1(CCCc2cc(Cl)ccc21)CO3` (single isomer, unassigned) [Example 288], the half-maximal inhibitory concentration (IC50) under setting [1] was determined as 0.652 µM.

For `C[C@@H]1[C@@H](C)C/C=C/[C@]2(CN3CCN(C)C[C@@H]3CO2)[C@@H]2CC[C@H]2CN2C[C@@]3(CCCc4cc(Cl)ccc43)COc3ccc(cc32)C(=O)NS1(=O)=O` (single isomer, unassigned) [Example 132], the IC50 under setting [1] was found to be 0.263 µM.

For `CO[C@]1(CN2CC[C@H]3CCCC[C@@H]3C2)/C=C/C[C@H](C)[C@@H](C)S(=O)(=O)NC(=O)c2ccc3c(c2)N(C[C@@H]2CC[C@H]21)C[C@@]1(CCCc2cc(Cl)ccc21)CO3` (single isomer, unassigned) [Example 89], the IC50 under setting [2] is 8.21 µM.

With `CO[C@@]1(CN2CCN3CCN(C(=O)CCS(=O)(=O)c4ccccc4)C[C@H]3C2)/C=C/C[C@H](C)[C@@H](C)S(=O)(=O)NC(=O)c2ccc3c(c2)N(C[C@@H]2CC[C@H]21)C[C@@]1(CCCc2cc(Cl)ccc21)CO3` (single isomer, unassigned) [Example 295], under setting [1], the IC50 turned out to be 0.104 µM.

`CCCO[C@]1(CN2CCN3CCCC[C@@H]3C2)/C=C/C[C@H](C)[C@@H](C)S(=O)(=O)NC(=O)c2ccc3c(c2)N(C[C@@H]2CC[C@H]21)C[C@@]1(CCCc2cc(Cl)ccc21)CO3` [Example 353, (1S,3′R,6′R,7′R,8′E,11′S,12′R)-6-chloro-11′,12′-dimethyl-7′-((9aR)-octahydro-2H-pyrido[1,2-a]pyrazin-2-ylmethyl)-7′-propoxy-3,4-dihydro-2H,15′H-spiro[naphthalene-1,22′-[20]oxa[13]thia[1,14]diazatetracyclo [14.7.2.0~3,6~.0~19,24~]pentacosa[8,16,18,24]tetraen]-15′-one 13′,13′-dioxide]: the IC50 under setting [1] worked out at 0.186 µM.

For `CO[C@@]1(CN2CCN3CCC(F)(F)C[C@H]3C2)/C=C/C[C@H](C)[C@@H](C)S(=O)(=O)NC(=O)c2ccc3c(c2)N(C[C@@H]2CC[C@H]21)C[C@@]1(CCCc2cc(Cl)ccc21)CO3` (single isomer, unassigned) [Example 289], the IC50 under setting [1] worked out at 0.131 µM.

Turning to `CO[C@@]1(CN2CCN3CCS(=O)(=O)C[C@@H]3C2)/C=C/C[C@H](C)[C@@H](C)S(=O)(=O)NC(=O)c2ccc3c(c2)N(C[C@@H]2CC[C@H]21)C[C@@]1(CCCc2cc(Cl)ccc21)CO3` (single isomer, unassigned) [Example 232], under setting [2], the IC50 was 0.2 µM.

Turning to `CO[C@@]1(CN2CCCN(C(C)C)CC2)/C=C/C[C@H](C)[C@@H](C)S(=O)(=O)NC(=O)c2ccc3c(c2)N(C[C@@H]2CC[C@H]21)C[C@@]1(CCCc2cc(Cl)ccc21)CO3` (stereo in doubt) [Example 331], the IC50 under setting [1] turned out to be 0.23 µM.

For `CO[C@@]1(CN2CCN3CCN(C)C[C@@H]3C2)/C=C/C[C@H](C)[C@@H](C)S(=O)(=O)NC(=O)c2ccc3c(c2)N(C[C@@H]2CC[C@H]21)C[C@@]1(CCCc2cc(Cl)ccc21)CO3` (stereo in doubt) [Example 210], the IC50 under setting [1] amounted to 0.185 µM.

`CO[C@]1(CN2CCN3CCC(F)(F)C[C@H]3C2)/C=C/C[C@H](C)[C@@H](C)S(=O)(=O)NC(=O)c2ccc3c(c2)N(C[C@@H]2CC[C@H]21)C[C@@]1(CCCc2cc(Cl)ccc21)CO3` (single isomer, unassigned) [Example 299]: the IC50 under setting [1] was determined as 0.456 µM.
